The assay concerns the target T1, collagenase.
T1 construct: gene colG; docking used another collagenase (printed PDB 465C / 456C)
Nature of the assay: FALGPA hydrolysis, ninhydrin, absorbance at […] nm. It counts as biochemical. To be noted: FALGPA substrate, 50 mM tricine, 37 °C, 20 min preincubation; metal chelator.

In brackets after ≈: the same amount, converted by molar mass.

With `O=C(O)CN(CCN(CC(=O)O)CC(=O)O)CC(=O)O` [EDTA], the “IC50 ± SD (% inhibition ± SD) / Anti-collagenase” value came to 315.12 ± 2.21 µg/mL (≈ 1080 µM).

The record behind these values is PMC10840179, “Chemical and biological characterization of Melaleuca subulata (Cheel) Craven leaves’ volatile constituents supported by chemometric analysis and molecular docking” (BMC Complementary Medicine and Therapies, 2024).
